Reference: patent US20230346827A1 (priority 2020, published 2023)

Tested on: Human Schwann cells
Experiment: Gene expression array and pathway analysis, Schwann cells, LMW-DS 0.01 mg/ml 48 h
Assay type: cell-based
Details: for number of genes: abolished nutrient effect / number of genes: total / number of genes: enhanced response to nutrients / number of genes: new effect induced by LMW-DS / number of genes: not different from control / Activation z-score / Predicted activation state relative D2 control: Schwann cells; for Activation z-score / Predicted activation state relative D2 control: D2 LMW-DS treatment
Method: For each cell line, n=8 × 25 cm^2 culture flasks were set up. Two flasks were harvested for each cell type on the day of treatment (24 hours after seeding). This represents the Day0 time point. From the remaining flasks, three flasks were treated with Control Medium and three were treated with Culture Medium (CM) containing LMW-DS to give a final concentration of 0.01 mg/ml. Cells from the treated flasks were collected after 48 hours. Therefore the collected data represent (a) untreated cells (Day0 Controls and Day2 Controls) and (b) cells treated with LMW-DS (ILB®, Tikomed AB, Viken, Sweden, WO 2016/076780) for 48 hours (Day2 LMW-DS treated).
Schwann cells growth medium was prepared by adding 10% of fetal bovine serum (FBS) to high-glucose DMEM and pre-warmed to 37° C. Cells were thawed in a 37° C. water bath for no longer than 2 min.
Cells from 12 vials were each gently transferred to a tube containing 10 ml of high-glucose DMEM medium and centrifuged at 400 relative centrifugal field (RCF) for 10 min. Pellet was re-suspended in culture medium. The cells from the 12 vials were mixed and distributed equally into the previously coated 25 cm^2 flasks (n=8). Cells were incubated at 37° C. with 5% CO2. Cells were allowed to settle for 24 hours before LMW-DS treatment.
LMW-DS was provided at a stock concentration of 20 mg/ml and was kept in a temperature monitored refrigerator at 4° C. A fresh 100x LMW-DS stock (1.0 mg/ml) was prepared in sterile DMEM-F12. The concentrated drug stock was sterile filtered and added to the respective culture media (19.6 ml CM and 0.4 ml LMW-DS stock solution). The Control was made using 19.6 ml CM and 0.4 ml of DMEM-F12. LMW-DS and CM were added to the respective flasks (5 ml each) to reach the 0.01 mg/ml concentration of LMW-DS in each dish with a total of 10 ml CM each.
CM was aspirated into a clean and labelled 15 ml Falcon tube. The flasks (without culture medium) were placed into the -80° C. freezer for 30 minutes. The CM in the Falcon tubes was spun at 3000 x g for 5 minutes. Supernatant was removed and the small pellet was re-suspended in 2.5 ml Trizol:Water (4:1) solution at room temperature (RT, ~22° C.).
Two aliquots of 1 ml lysate were removed from each sample and 200 µl of chloroform was added to each (0.2 ml of chloroform per 1 ml of TRIzol Reagent used during the cell lysis step) and the tube was shaken vigorously. Samples were stored at RT for 2-3 minutes and subsequently centrifuged at 12,000 x g for 15 minutes at 4° C.
The RNA was precipitated from the aqueous phase by adding an equal amount of 100% ethanol. The precipitated RNA was fixed onto a Spin Cartridge, washed twice and dried. The RNA was eluted in 50 µl warm RNase-Free Water. The amount and quality of the purified RNA was measured by Nanodrop. The RNA was stored at -80° C. before transfer to Source Bioscience for Array analysis.
The expression data were downloaded into separate files for each cell line. The ‘Background corrected’ expression is the data from the “gProcessedSignal” of the arrays that is the result of the background signal extracted from the actual signal of the relevant probe. This is the most often used variable in array analysis. The background corrected signal was log2 transformed for all samples for statistical analysis. To reduce the false discovery rate in the samples, the signals that were below ‘expression level’ were removed. The ‘below expression’ level was set at 5 for the log2 transformed expression values.
Based on the expression pattern of the Control probes on each array it was decided to carry out Median Centering for all arrays before analysis to reduce the variability of the results. […]

[1] = pathway analysis of gene expression
[2] = upstream regulator HGF (from line above)

sodium salt of dextran sulfate [LMW-DS]
attachment-related molecules differentially expressed: 17 | number of differentially expressed genes (D0 control to D2 LMW-DS treated): 1244 | number of differentially expressed genes (D2 control to D2 LMW-DS treated): 700 | number of genes: abolished nutrient effect (no effect): 21 | number of genes: total (no effect): 21 | number of genes: abolished nutrient effect (significant downregulation): 1 | number of genes: enhanced response to nutrients (significant downregulation): 122 | number of genes: new effect induced by LMW-DS (significant downregulation): 352 | number of genes: not different from control (significant downregulation): 42 | number of genes: total (significant downregulation): 517 | number of genes: abolished nutrient effect (significant upregulation): 13 | number of genes: enhanced response to nutrients (significant upregulation): 441 | number of genes: new effect induced by LMW-DS (significant upregulation): 74 | number of genes: not different from control (significant upregulation): 373 | number of genes: total (significant upregulation): 901 | number of genes: abolished nutrient effect (total): 35 | number of genes: enhanced response to nutrients (total): 563 | number of genes: new effect induced by LMW-DS (total): 426 | number of genes: not different from control (total): 415 | number of genes: total (total): 1439 | TGFβ-induced effect in adhesion of immune cells, activation and aggregation of cells, fibrosis, self-activation of TGFβ (molecular network analysis): totally abolished | Complex III (cytochrome bc1) [1]: inhibited | activity and/or levels of glutamate transporters (SLC1A2/3) [1]: increased | genes altered in Control cultures with no changes in LMW-DS treated cultures (two days): 21 | genes downregulated by growth factors, downregulation stronger with LMW-DS (two days): 122 | genes downregulated in control cultures, upregulated in LMW-DS treated cultures (two days): 13 | genes increased in control cultures, downregulated in LMW-DS treated cultures (two days): 1 | genes upregulated in Control cultures, upregulation stronger with LMW-DS (two days): 441 | Activation z-score (upstream regulator ANGPT2): 1.283 | Predicted activation state relative D2 control (upstream regulator ANGPT2): Activated | Activation z-score (upstream regulator BMP2): 1.395 | Predicted activation state relative D2 control (upstream regulator BMP2): Activated | Activation z-score (upstream regulator BMP4): 0.927 | Predicted activation state relative D2 control (upstream regulator BMP4): Activated | Activation z-score (upstream regulator BMP7): 1.86 | Predicted activation state relative D2 control (upstream regulator BMP7): Activated | Activation z-score (upstream regulator EGF): 2.059 | Predicted activation state relative D2 control (upstream regulator EGF): Activated | Activation z-score (upstream regulator FGF2): 2.37 | Predicted activation state relative D2 control (upstream regulator FGF2): Activated | Activation z-score (upstream regulator GDF2): 2.561 | Predicted activation state relative D2 control (upstream regulator GDF2): Activated | Activation z-score [2]: 1.432 | Predicted activation state relative D2 control [2]: Activated | Activation z-score (upstream regulator IGF1): 1.332 | Predicted activation state relative D2 control (upstream regulator IGF1): Activated | Activation z-score (upstream regulator NRG1): 1.768 | Predicted activation state relative D2 control (upstream regulator NRG1): Activated | Activation z-score (upstream regulator NRTN): 0.958 | Predicted activation state relative D2 control (upstream regulator NRTN): Activated | Activation z-score (upstream regulator PGF): 0.254 | Predicted activation state relative D2 control (upstream regulator PGF): Activated | Activation z-score (upstream regulator TGFβ1): 1.05 | Predicted activation state relative D2 control (upstream regulator TGFβ1): Less inhibited | Activation z-score (upstream regulator VEGFA): 3.4 | Predicted activation state relative D2 control (upstream regulator VEGFA): Activated | Activation z-score (upstream regulator WISP2): -0.896 | Predicted activation state relative D2 control (upstream regulator WISP2): Less inhibited
